Our source for the melting point values is a melting point compilation (Tetko et al.).

Where only a bound is given, the exact number is not on record here.

`O=c1[nH]c(=O)n(CCO)c2c1CCCC2` displayed a melting point of 275 to 278 °C. Consider `CCCC(C(N)=O)n1nnc2ccccc21` (stereo unspecified), for which the melting point came out at 125 °C. On to `O=S(=O)(O)c1ccc(-c2ccc(S(=O)(=O)O)cc2)cc1`, for which the melting point came to 72.5 °C. `COc1cc(CCO)ccc1O` yielded a melting point of 41 °C. Compound `O=C(NC(Cc1ccco1)C(=O)O)OCC1c2ccccc2-c2ccccc21` (stereo unspecified) had a melting point of 130 °C. Then `CCOC(=O)c1c(NC(=S)Nc2ccc(F)cc2)sc2c1CCCC2`, with 209 to 211 °C.

The compound `CN1C(=O)C(=NNc2c(Br)cc(Br)cc2Br)C(=O)N(C)C1=O` displayed a melting point of 165 °C. As for `O=C1NC(=O)c2c(Cl)c(Cl)c(Cl)c(Cl)c21`, the melting point turned out to be 300 °C. `CCCCCc1ccc(C(=O)O)cc1`: the melting point was 85 to 90 °C. The result for `NC(=S)CS(=O)(=O)c1ccc(Cl)cc1` reads 188 to 192 °C. Then `O=C1/C(=N\O)C(c2ccc([N+](=O)[O-])cc2)=NN1c1ccccc1`, with 222 to 224 °C. Then `CCCC(C)(O)C#CC(C)(O)CCC` (stereo unspecified), with 68.5 °C; and `CN(C)CCC(O)(c1ccccc1)c1ccccc1Cl` (stereo unspecified), with 120 °C. With `O=[N+]([O-])c1ccccc1N1CSc2nnc(-c3ccccc3)n2C1`, the melting point is over 300 °C. Then `CCCCCCCCCCCc1ccccc1`, with -5 °C.

`CSc1nc2nc(SC)n(C)c2c(=O)n1-c1ccc(F)cc1`: the melting point lay within 177 to 179 °C.

With `CCOC(=O)C1=C(N)Oc2ccc(Br)cc2C1C(C#N)C(=O)OCC` (stereo unspecified), the melting point lay in the range of 105 to 108 °C. The result for `CC(CCC(=O)O)c1ccccc1` (stereo unspecified) reads 13 °C; that for `Cc1ccc2c(c1)CC2=O`, 53 °C.

`CC(=O)c1ccc(NC(=O)CCl)cc1` showed a melting point of 150 to 151 °C. Then `O=C(Cl)c1cc(-c2ccco2)on1`, with 74 to 76 °C; and `CCCCCCCCCCCCC(=O)OC`, with 6.5 °C; and `COc1ccc(C(=O)c2noc(-c3ccccc3)c2S(=O)(=O)c2ccccc2)cc1`, with 161 °C.

`O=C(O)CC(O)(C(F)(F)F)C(F)(F)F` came in with a melting point of 87 °C. `CC(C(=O)O)=C(C)c1cccc(C)c1` displayed a melting point of 163 °C. The result for `COc1ccc(C(C)NCC(OC)OC)cc1O` (stereo unspecified) reads 88 °C. Then `CCCCCCCC1CCCC1`, with -53 °C; and `CC1CCC(C(C)C)C(OC(=O)C(C(=O)c2ccccc2)c2ccccc2)C1` (stereo unspecified), with 115 °C. Then `CC(O)CN(CC(C)O)CC(C)O` (stereo unspecified), with 48 to 52 °C. For the compound `c1ccc(CCc2ccccn2)cc1`, the melting point was -3 °C. Then `O=C(CCl)N[C@@H](Cc1ccc(O)cc1)C(=O)O`, with 153 to 154 °C; and `COc1ccc2c(=O)n3c(cc2c1)CCCC3`, with 80 °C; and `CC12C=CCC1C1CCC3CC(O)CCC3(C)C1CC2` (stereo unspecified), with 143 °C. Then `CN=C1SC(CC(=O)O)C(=O)N1C` (stereo unspecified), with 157 to 159 °C; and `O=C(O)COc1cccc(Cl)c1Cl`, with 174 °C. Then `Sc1nnc(-c2cccc3ccccc23)n1Cc1ccco1`, with 177 to 178 °C; and `COc1cc2c(cc1O)C(Cc1ccc(O)cc1)NCC2` (stereo unspecified), with 220 °C; and `CCOC(=O)CCCOc1ccccc1NC(=O)c1ccc2c(c1)CC1(CCC(c3ccc(C(C)(C)C)cc3)CC1)C2` (stereo unspecified), with 112 °C. As for `COc1cc(C=CC(=O)O)c([N+](=O)[O-])cc1OC`, the melting point worked out at 270 °C. Regarding `COc1ccc(C(=O)c2cccc(OC)c2OC)cc1OC`, the melting point was in the range of 118 to 120 °C. The result for `COc1ccc(-n2nc(C(=O)c3cccs3)sc2=N)cc1` reads 164 °C; that for `O=C(C1=NOC2C(=O)N(c3ccc(O)cc3)C(=O)C12)c1ccc([N+](=O)[O-])cc1` (stereo unspecified), 213 °C; that for `Brc1nc2ccccc2s1`, 40 to 42 °C.

Turning to `CN1C(=O)CC(c2ccccc2)C1=O` (stereo unspecified), the melting point was 72 °C. Then `CCCCCCCCCCCCCCCCCC(=O)OCCCC`, with 27 °C; and `Cc1cc(CO)nn1-c1ccccn1`, with 44 to 46 °C; and `O=C(O)c1cc(F)nc(F)c1F`, with 125 to 127 °C. The result for `COc1cccc2cc(C(C)=O)oc12` reads 93 °C; that for `O=Cc1ccc(CN2CCOCC2)cc1`, 53 to 56 °C; that for `OC(CCN1CCCCC1)(c1ccccc1)c1ccccc1`, 120 °C. The result for `Nc1nc(=O)[nH]cc1Br` reads 240 to 243 °C; that for `O=C(O)C1CCNCC1`, 336 °C. Regarding `CC(=O)Oc1c(-c2ccccc2)[nH]c2cc([N+](=O)[O-])c(/C=C/c3ccccc3)cc12`, the melting point stood at 224 °C. Compound `CCOCCOC(=O)c1ccccc1C(=O)OCCOCC` had a melting point of 34 °C. Then `OCc1cc(-c2ccccc2)on1`, with 99 to 102 °C; and `O=Cc1ccc(N2CCCC2)cc1`, with 85 °C; and `O=C1c2ccccc2C(=O)c2c(O)c(O)cc(O)c21`, with 259 °C. In the case of `CNc1ccc2cc(OC)[nH]c2c1`, the melting point amounted to 165 °C. Then `FC(F)(F)N=C1SC(=Nc2ccccc2)N(c2ccccc2)C1=NC(F)(F)F`, with 118 °C; and `CCOC(=O)ON=C(C(=O)c1ccccc1)c1ccccc1`, with 73 to 75 °C; and `Nc1ccc2c3c(cccc13)-c1ccccc1-2`, with 116 °C.

Compound `O=C=NCCCCCCN=C=O` registered a melting point of -67 °C. Take `Clc1ccc2c(N3CCNCC3)ccnc2c1`: the melting point was in the range of 113 to 116 °C. Then `O=C(Cl)c1cccc(C(=O)Cl)n1`, with 59 °C; and `Cc1ccc(O)c2ccccc12`, with 85.8 °C; and `Brc1c2ccccc2c(Br)c2ccccc12`, with 226 °C.

`N[C@@H](CO)c1ccccc1` registered a melting point of 75 to 79 °C. Then `Cc1cccc2c1CC(C(=O)O)N(C(=O)OC(C)(C)C)C2` (racemic), with 142 to 144 °C. In turn, `CCCCOCC` came in with a melting point of -124 °C. The result for `COc1ccc(C=C(C(=O)O)C(=Cc2ccc(OC)c(OC)c2)C(=O)O)cc1OC` reads 224 °C; that for `C=Cc1ccc(C(=O)OC)cc1`, 36 °C; that for `CC(=NO)c1ccccn1`, 117 to 119 °C. The result for `N#CCS(=O)(=O)Cc1ccc(Cl)cc1` reads 179 to 182 °C; that for `O=C(O)COC(=O)c1cc(Oc2ccc(C(F)F)cc2Cl)ccc1[N+](=O)[O-]`, 65 °C.

Turning to `Cc1cc(O)cc2c1C(=O)CC(C)(C)O2`, the melting point was in the range of 189 to 191 °C.

Consider `CC(=O)/C(=N\Nc1cc(Cl)ccc1Cl)C(=O)C(F)(F)F`, for which the melting point lay within 83 to 85 °C.

The compound `O=C(NC(=O)c1c(F)cccc1F)Nc1ccc(CON=C(c2ccc(Cl)cc2)C2CC2)cc1` yielded a melting point of 144 °C. For the compound `NC(=O)c1ccnc(I)c1`, the melting point is 165 °C. `NC(=O)CC[C@H](NC(=O)OCc1ccccc1)C(=O)O` yielded a melting point of 135 to 137 °C.

As to `Cc1ccccc1CP(=O)(O)O`, the melting point lay within 195 to 196 °C. The result for `NS(=O)(=O)c1c(Cl)nc2sccn12` reads 176 to 177 °C; that for `COc1ccc(C(=S)Nc2ccccc2)cc1`, 157 °C; that for `O=C1CN=C(c2ccccc2)c2cc(Cl)ccc2N1CC1CC1`, 146 °C. The result for `Cc1cccc2c(=O)c(=O)c12` reads 121 °C; that for `ClCOCCl`, -41.5 °C; that for `Cc1cc(I)cnc1NCC(=O)OC(C)(C)C`, 99 °C. Then `CCN(C)CC`, with -196 °C; and `CSc1ccccc1/N=C/c1cc(C(C)(C)C)cc(C(C)(C)C)c1O`, with 135 °C; and `CCOC(=O)C1C(c2ccccc2)C(C(=O)OCC)C(O)(C(F)(F)F)NC1(O)C(F)(F)F` (stereo unspecified), with 234 °C. With `CCCCCCCCCCCCCCCC(C)O` (stereo unspecified), the melting point was 54 °C. The result for `C=Cc1ccc(I)cc1` reads 44 °C; that for `O=P1(O)Oc2ccc3ccccc3c2-c2c(ccc3ccccc23)O1`, 320 °C. The result for `O=C(O)CNC(CO)(CO)CO` reads 187 °C. Then `Cc1nc(-c2ccc(C(F)(F)F)cc2)sc1C(=O)O`, with 237 to 238 °C. As for `NNC(=O)c1ccncc1`, the melting point was found to be 171 °C. The result for `O=C(O)CCCCCCC(=O)c1ccccc1` reads 81 °C; that for `O=Cc1ccc(O)c(C(=O)O)c1`, 250 °C. The result for `c1ccc(-c2nsc(N3CCCNCC3)n2)cc1` reads 82 to 83 °C. Regarding `N#Cc1c(F)cc(Cl)cc1F`, the melting point was determined as 102 °C.

`Cc1cnc2c(C(=O)O)c(Cl)ccc2c1` returned a melting point of 253 °C.

Take `O=C(O)CCC(=O)c1ccc2c(c1)-c1cccc3cccc-2c13`: the melting point is 208 °C.

Regarding `Cc1cc(C)c(N)c(C(O)c2ccccc2)c1` (stereo unspecified), the melting point came to 125 °C. `O=S(=O)(c1ccc(Cl)cc1)n1cccc1` registered a melting point of 116 to 118 °C. Then `Cc1[nH]c2cc(C(=O)O)ccc2c1C`, with 150 °C; and `O=C1OC(c2ccccc2)=NC1=Cc1ccco1`, with 158 to 159 °C; and `Cc1nn(-c2ccccc2)nc1C(=O)NNS(=O)(=O)c1ccccc1`, with 217 to 219 °C.

With `Nc1ccc(Br)cc1C(=O)O`, the melting point came to 220 °C. Then `COC(=O)C(C)O` (stereo unspecified), with -66 °C; and `N#Cc1ccccc1CCl`, with 61 °C; and `Cc1cc(=S)cc(C)o1`, with 142 °C. Take `Cc1cc(C(=O)CCl)c(C)n1-c1ccc(F)cc1`: the melting point is 80 to 82 °C.
